# System: mESC Bmi1-luciferase reporter, firefly/renilla ratio, 24 h
# Experiment: Bmi1-luciferase reporter activators in mESC, dose response, esBAF inhibitor project, mouse embryonic stem cells, cherry-pick (AID 651717);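 also: luciferase knocked into Bmi1 locus with EF-1a renilla as cell number control; rising ratio signals esBAF inhibition which derepresses Bmi1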
row,Structure (SMILES),AC40 [µM]
1,O=C(NN=Cc1ccc2c(c1)CCC2)c1ccccc1O,2.45
2,Cc1ccc(Nc2nc3c(c(=O)[nH]2)CCCC3)cc1,8.9
3,Clc1cccc(Cl)c1Cn1nnc(-c2cccs2)n1,3.31
4,COc1ccc(Cc2nc3ccc(C(=O)NCCCSC)cc3o2)cc1OC,4.92
5,CO[C@H]1CN(C)C(=O)c2cc(NC(=O)NC(C)C)ccc2OC[C@H](C)N(Cc2ccc(-c3ccccn3)cc2)C[C@@H]1C,0.871
6,Nc1nc(SCc2ccccc2)c2ncn(C3CCCCC3)c2n1,2.09
7,CN(C)c1ccc(C(=O)c2ccccc2)cc1,2.69
8,COc1cc2ccccc2cc1C(=O)Nc1ccccc1C,1.85
9,O=C(CCNS(=O)(=O)c1cccs1)N1CCc2ccccc2C1,6.72
10,Cc1csc(NC(=O)Cc2c[nH]c3ccccc23)n1,10.2
11,COc1cccc2sc(NC(=O)c3ccc(Br)s3)nc12,1.85
12,C=CCn1cccc(C(=O)Nc2ccc(Cl)cc2)c1=O,3.88
13,c1ccc(-n2nnc3ccccc32)nc1,11.2
14,Cc1ccc(N=Nc2cc(C)ccc2O)c(C)c1,3.74
15,COc1ccc(CNC(=O)c2ccc3ccccc3n2)cc1,29.4
16,CC(=O)Oc1ccc(-c2csc(Nc3ccc(Cl)cn3)n2)cc1,2.19
17,Cc1csc(Nc2nc(N)c(C(=O)Nc3ccccc3)o2)n1,3.69
18,COc1ccc(-n2nc(C(=O)NCC(=O)N3CCN(c4ccccc4)CC3)c3ccccc3c2=O)cc1OC,7.98
19,CC(=O)Nc1cnc(-c2cc(C)c(O)c(C)c2)cn1,12
20,C#CCN(CC=C)C(=O)CCc1nnc(COc2ccccc2)o1,22.4
21,COc1ccc(F)cc1-c1cc(C(=O)Nc2cccnc2)[nH]n1,3.06

row,Structure (SMILES),AC40 [µM]
1,COc1cc2ccccc2cc1C(=O)NC1CCCC1,8.82
2,COc1ccccc1C(=O)NCC(=O)Nc1ccc2c(c1)CCC2,3.24
3,CN(Cc1nccn1C)C(=O)c1ccc2nc(Cc3ccccc3F)oc2c1,5.37
4,C[C@H]1CN([C@@H](C)CO)C(=O)CCCn2nncc2CO[C@@H]1CN(C)C(=O)Nc1ccc2c(c1)OCCO2,29.2
5,CC1(C)Cc2c(c(N3CCCC3)nc3sc(C(=O)Nc4ccccc4)c(N)c23)CO1,6.24
6,COc1ccc(C(=O)N=c2sc3ccccc3n2C)cc1OC,2.13
7,Cc1cccc(N=[N+]([O-])c2cccc(C)n2)n1,6.4
8,CC1CCN(C(=O)CCc2nnc(-c3ccccc3)o2)CC1,4.2
9,CC1CCc2c(sc(NC(=O)c3cccn3C)c2C(N)=O)C1 (stereo not drawn),3.63
10,CC(=O)c1ccc(NC(=O)C2CC(=O)N(Cc3ccccc3)C2)cc1 (stereo not drawn),3.25
11,O=C(Nc1ccc(Cl)c(Cl)c1)Nc1ccccc1O,1.14
12,COc1cccc(NC(=O)C(=O)NCCC2CCCCN2S(=O)(=O)c2cccs2)c1 (stereo not drawn),3.86
13,C=CCn1c(NCc2ccc(OC)cc2O)nc2ccccc21,5.58
14,c1ccc(CCc2nc(-c3cccnc3)no2)cc1,1.64
15,O=C1CCCc2cc3c(ccc4ccccc43)cc21,3.18
16,c1ccc(-c2cc3ccccc3[nH]2)cc1,5.17
17,COc1ccc(-c2ccc3oc(-c4ccsc4)cc(=O)c3c2)cn1,1.67
18,Cn1cccc1C(=O)OCc1ccc(C(C)(C)C)cc1,4.64
19,CCCc1cc(C(=O)Nc2cc(Br)ccc2O)no1,8.53
20,O=C(Nc1ccc(Cl)c(Cl)c1)c1ccccc1NC(=O)C1CC=CCC1C(=O)O (stereo not drawn),7.6
21,CCS(=O)(=O)n1nc(-c2ccc(Cl)cc2)nc1SC,4.79

row,Structure (SMILES),AC40 [µM]
1,Cc1ccc(C(=O)CC(=O)c2ccccc2C)c(O)c1,9.56
2,CC(C)c1ccc(C(O)c2cnc(C(C)C)n2C)cc1 (stereo not drawn),4.11
3,Clc1ccc(-c2nc(Cc3ccccc3)no2)cc1,1.85
4,Cc1csc(N/N=C/c2ccccc2F)n1,1.01
5,C/C(=N/O)c1cccc(N2Cc3ccccc3C2)c1,18.5
6,NC(N)=NC(=O)c1nc(Cl)c(N2CCCCCC2)nc1N,3.13
7,O=C(Nc1nc2c(s1)CCc1ccccc1-2)c1cccs1,0.9
8,CSc1ccccc1NC(=O)c1cc(C(C)C)on1,3.11
9,CCCCNc1ccc2c(c1)C1CC2CCN1C(=O)OCc1ccccc1 (stereo not drawn),4.73
10,COc1ccccc1CNc1nc2cc(-c3sccc3C)sc2c(=O)n1C,6.95
11,CN(CC(=O)Nc1ccc(Cl)c(C(F)(F)F)c1)C(=O)CCCNC(=O)c1ccc(Cl)cc1,16.8
12,CN(C)c1ccc(N=Cc2nc(-c3ccccc3)oc2OC(=O)c2cccc(Br)c2)cc1,1.2
13,C=CCSC1=NNC(c2ccc(C(C)(C)C)cc2)=NN1,8.49
14,Cc1ccnc(NC(=O)c2ccc3c(c2)C(=O)N(CC(C)C)C3=O)c1,2.87
15,CC(C)c1ccc(CNc2ncc(Br)cn2)cc1,4.25
16,COc1ccc(-c2ccc3n2Cc2cnnn2-c2ccccc2-3)cc1,4.57
17,O=C(NOCc1ccccc1)OCc1ccccc1,4.39
18,Cc1ccc(-c2csc(NC(=O)c3ccno3)n2)cc1,8.99
19,CC(C)c1ccc(NC(=O)c2cccnc2)cc1,2.6
20,CCCNC(=O)Nc1ccc2c(c1)C(=O)N(C)C[C@H](OC)[C@@H](C)CN(Cc1ccc(-c3ccccn3)cc1)[C@@H](C)CO2,14.1
21,CCOC(=O)C1=C(CSc2nc(-c3ccccc3)ccc2C#N)OC(N)=C(C#N)C1c1cccnc1 (stereo not drawn),2.89
